Source: PMC4115637 (Pharmacology Research & Perspectives, 2014)
Changes are numbered by the printed parent chain. pEC50, pIC50: −log10 of the molar value. Counter-ions that a name gives are not always drawn. Like-named read-outs stand apart in the source and are kept apart here.

Tests used:
[1] = target: T1, human TRPV3 (Homo sapiens, UniProt Q8NET8); test: Re-evaluation of screening hits as TRPV3 antagonists; format: cell-based; conditions: Table 2; selectivity versus other TRP channel overexpressing HEK-293 lines
T1 sequence (Q8NET8 1-790): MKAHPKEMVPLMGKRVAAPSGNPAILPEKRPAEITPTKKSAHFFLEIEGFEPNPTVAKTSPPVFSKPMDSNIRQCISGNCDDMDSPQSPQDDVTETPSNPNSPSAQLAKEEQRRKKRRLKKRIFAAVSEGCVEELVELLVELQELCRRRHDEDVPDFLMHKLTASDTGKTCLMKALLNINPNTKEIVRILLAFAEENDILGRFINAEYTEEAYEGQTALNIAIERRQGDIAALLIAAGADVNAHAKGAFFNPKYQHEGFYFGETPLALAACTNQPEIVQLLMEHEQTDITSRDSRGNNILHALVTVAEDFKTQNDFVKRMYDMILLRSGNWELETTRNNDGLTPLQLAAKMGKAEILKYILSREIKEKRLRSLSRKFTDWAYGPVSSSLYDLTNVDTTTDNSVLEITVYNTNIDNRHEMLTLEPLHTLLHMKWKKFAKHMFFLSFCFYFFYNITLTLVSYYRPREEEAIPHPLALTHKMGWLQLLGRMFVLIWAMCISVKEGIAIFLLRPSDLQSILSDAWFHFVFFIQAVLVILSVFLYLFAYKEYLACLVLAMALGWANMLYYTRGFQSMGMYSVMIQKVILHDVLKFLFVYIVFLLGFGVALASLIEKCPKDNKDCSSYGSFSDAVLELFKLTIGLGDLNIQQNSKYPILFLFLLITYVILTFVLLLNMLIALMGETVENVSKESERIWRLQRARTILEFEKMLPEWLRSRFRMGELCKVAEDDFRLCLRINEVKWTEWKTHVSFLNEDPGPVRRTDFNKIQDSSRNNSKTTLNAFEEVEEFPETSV

[2] = target: human TRPV1 (Homo sapiens, UniProt Q8NER1); test: Calcium flux in HEK-293 cells overexpressing TRPV1; format: cell-based; conditions: Table 2 comment
human TRPV1, sequence (Q8NER1 whole entry): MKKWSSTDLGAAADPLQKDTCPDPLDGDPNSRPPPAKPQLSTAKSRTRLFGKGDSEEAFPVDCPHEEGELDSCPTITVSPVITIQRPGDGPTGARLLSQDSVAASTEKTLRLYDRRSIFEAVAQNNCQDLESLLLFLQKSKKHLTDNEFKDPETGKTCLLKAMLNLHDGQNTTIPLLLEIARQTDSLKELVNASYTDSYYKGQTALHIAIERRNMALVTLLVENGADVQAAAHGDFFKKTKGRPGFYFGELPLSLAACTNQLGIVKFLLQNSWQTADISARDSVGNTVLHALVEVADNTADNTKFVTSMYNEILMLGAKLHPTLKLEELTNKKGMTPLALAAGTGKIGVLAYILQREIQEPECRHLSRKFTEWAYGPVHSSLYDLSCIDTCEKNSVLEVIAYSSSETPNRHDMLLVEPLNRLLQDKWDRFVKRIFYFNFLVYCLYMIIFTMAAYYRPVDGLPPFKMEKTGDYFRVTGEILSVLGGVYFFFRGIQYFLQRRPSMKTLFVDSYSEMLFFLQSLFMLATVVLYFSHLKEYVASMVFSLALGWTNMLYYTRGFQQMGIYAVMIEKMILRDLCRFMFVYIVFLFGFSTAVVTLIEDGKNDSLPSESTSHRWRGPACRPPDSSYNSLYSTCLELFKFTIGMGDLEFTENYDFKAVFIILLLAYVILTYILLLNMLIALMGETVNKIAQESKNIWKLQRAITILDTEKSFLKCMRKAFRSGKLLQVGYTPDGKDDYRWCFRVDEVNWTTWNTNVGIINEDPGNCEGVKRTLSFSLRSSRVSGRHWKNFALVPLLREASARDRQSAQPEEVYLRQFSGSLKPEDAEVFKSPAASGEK

[3] = test system: TRPV3; conditions: cited from earlier work; for pEC50: depending on the model used
[4] = target: T1, human TRPV3; test: Re-evaluation of screening hits as TRPV3 agonists; format: cell-based; conditions: Table 1
[5] = target: T1, human TRPV3; test: Calcium flux in TRPV3 overexpressing HEK-293 cells; format: cell-based
[6] = target: T2, TRPV3-H426N (Homo sapiens, UniProt Q8NET8, H426N); test: Calcium flux in HEK-293 cells transiently transfected with TRPV3-H426N; format: cell-based; conditions: agonist 100 μmol/L
T2 sequence (Q8NET8 1-790 H426N): T1 sequence (Q8NET8 1-790) with H426N

[7] = target: T3, TRPV3-R696K (Homo sapiens, UniProt Q8NET8, R696K); test: Calcium flux in HEK-293 cells transiently transfected with TRPV3-R696K; format: cell-based; conditions: 100 μmol/L carvacrol, 100 μmol/L 2-APB, 100 and 200 μmol/L drofenine
T3 sequence (Q8NET8 1-790 R696K): T1 sequence (Q8NET8 1-790) with R696K

[8] = target: T4, TRPV3 in HaCaT cells (Homo sapiens, UniProt Q8NET8); test: Calcium flux in HaCaT cells; format: cell-based
T4 sequence (Q8NET8 1-790): T1 sequence (Q8NET8 1-790)

[9] = test system: HaCaT cells; test: Cell viability assay; format: cell-based, human; conditions: data not shown
[10] = target: T1, human TRPV3; test: Inhibition of agonist-induced calcium flux in TRPV3 overexpressing HEK-293 cells; format: cell-based; conditions: all three agonists (drofenine, carvacrol, 2-APB)

Row | Comment(s): re-evaluation as TRPV3 antagonist [1] | Comment(s): re-evaluation as TRPV3 agonist [4] | Molecule | further results
1 | Nonselective; also inhibited TRPV1 | – | CC(=O)CC(c1ccccc1)c1c(O)c2ccccc2oc1=O (centres unmarked) [Warfarin] | –
2 | Not inhibitory on rescreen | – | CCCCOc1ccc(C(=O)CCN2CCCCC2)cc1 [Dyclonine HCl] | –
3 | Not inhibitory on rescreen | – | O=C1C(CC[S+]([O-])c2ccccc2)C(=O)N(c2ccccc2)N1c1ccccc1 (centres unmarked) [Sulfinpyrazone] | –
4 | inhibited TRPA1>V3=V1 | – | CCCCNc1ccc(C(=O)OCCN(C)C)cc1 [Tetracaine HCl] | concentration of apparent TRPV1 agonist activity [2]: < 25 µmol/L
5 | – | – | Cc1ccc(C(C)(C)C)c(O)c1 [cresol, 6-tert-butyl-m-cresol] | pEC50 ([3]; ref Vogt-Eisele et al. [2007]): < 2.22
6 | – | Fluorescence interference | Acriflavinium HCl | –
7 | Not inhibitory on rescreen | – | O=C(N[C@H](CO)[C@H](O)c1ccc([N+](=O)[O-])cc1)C(Cl)Cl [Chloramphenicol] | –
8 | – | – | Cc1ccc(C(C)C)cc1O [carvacrol] | pEC50 [5]: 3.36; calcium flux in TRPV3-H426N relative to TRPV3-WT [6]: no effect; calcium flux in TRPV3-R696K [7]: diminished-to-no-function; pEC50 [8]: < 3.00
9 | Not inhibitory on rescreen | – | CC[C@H]1OC(=O)[C@H](C)[C@@H](O[C@H]2C[C@@](C)(OC)[C@@H](O)[C@H](C)O2)[C@H](C)[C@@H](O[C@@H]2O[C@H](C)C[C@H](N(C)C)[C@H]2O)[C@](C)(O)C[C@@H](C)C(=O)[C@H](C)[C@@H](O)[C@]1(C)O [Erythromycin] | –
10 | – | Inactive in confirmation assay | CC(C)COCC(CN(Cc1ccccc1)c1ccccc1)N1CCCC1.Cl.O (centres unmarked) [Bepradil HCl] | –
11 | – | – | CC(C)=CCC/C(C)=C/CC/C(C)=C/COP(=O)(O)OP(=O)(O)O [farnesyl pyrophosphate] | pEC50 ([3]; ref Bang et al. [2010]): ~6.89
12 | – | – | O=C1NC(c2cccc([N+](=O)[O-])c2)=CCN1c1ccccc1O [icilin] | cytotoxicity [9]: potently cytotoxic; inhibition of TRPV3 ([3]; ref Sherkheli et al. [2012]): inhibits TRPV3 at low micromolar concentrations
13 | – | Inactive in confirmation assay | CC(=O)Nc1ccccc1 [Acetanilide] | –
14 | Not inhibitory on rescreen | – | CN[C@@H]1[C@H](O)[C@H](NC)[C@H]2O[C@@]3(O)C(=O)C[C@@H](C)O[C@H]3O[C@@H]2[C@H]1O.Cl.Cl.O.O.O.O.O [Spectinomycin HCl] | –
15 | – | Nonselective; HEK-293 response | C[N+](C)(C)CCOC(N)=O [Carbachol] | –
16 | – | Nonselective; HEK-293 response | CC(=O)OCC[N+](C)(C)C [Acetylcholine] | –
17 | – | Nonselective; HEK-293 response | CC(=O)OC(C)C[N+](C)(C)C (centres unmarked) [Methacholine] | –
18 | Nonselective; also inhibited TRPV1 | – | O=C(O)c1ccccc1Nc1cccc(C(F)(F)F)c1 [Flufenamic acid] | –
19 | – | – | Cc1cccc2c1N(C(=O)CSc1ccc(C(F)(F)F)cn1)CCC2 [TRPV3 antagonist, 2-(5-trifluoromethyl-pyridine-2ylsulfanyl)-1-(8-methyl-3,4-dihydro-2H-quinolin-1-yl)-ethanone] | pIC50 [10]: 5.52 to 6.00

Row | Molecule | Comment(s): re-evaluation as TRPV3 antagonist [1] | Comment(s): re-evaluation as TRPV3 agonist [4] | further results
20 | COc1cc([C@@H]2c3cc4c(cc3[C@@H](O[C@@H]3O[C@@H]5CO[C@@H](C)O[C@H]5[C@H](O)[C@H]3O)[C@H]3COC(=O)[C@H]23)OCO4)cc(OC)c1O [Etoposide] | Cytotoxic, false positive | – | –
21 | CCCCCCc1ccc(O)cc1O.Nc1c2ccccc2nc2ccccc12 [Acrisorcin] | – | 4-Hexylresorcinol inactive as TRPV3 agonist; 9-aminoacridine fluorescence interference | –
